One molecule from patent US11299472B2, “Fumarate salt of (R)-3-(1-(2,3-dichloro-4-(pyrazin-2-yl)phenyl)-2,2,2- trifluoroethyl)-1-methyl-1-(1-methylpiperidin-4-yl) urea, methods of preparation, and uses thereof” (Helsinn Healthcare SA, priority 2017, dated 2022) can be followed below.

Each structure is given as a SMILES string.

Series [1] has as its target T1, human GHSR1a receptor (Homo sapiens, UniProt Q92847).
T1 construct: expressed in transfected cells; host or cells: HEK293
Nature of the series: Agonist FLIPR assay in HEK293 cells. In kind it is cell-based. Particulars: FLIPR agonist mode, concentrations up to 10 μM. On the procedure: The compounds were diluted with 100% DMSO to make 30 mM stock. On the test day, serial dilutions were prepared starting from the stock solution. For the FLIPR assay: 1) 8 μl of DMSO was added to 2 μl of compound stock solution (30 mM) to produce 10 μl of 6 mM solution; half-fold serial dilutions of the 6 mM solution were produced to generate ten doses; 2) test solutions were obtained by diluting the stock solutions 1/40 in assay buffer (DMSO concentration 2.5%). For the IP-1 assay: 1) 29 μl of DMSO was added to 1 μl of compound stock solution (30 mM) to produce 30 μl of 1 mM solution; half-fold serial dilutions of the 1 mM solution were produced to generate 10 doses; 2) test solutions were obtained by diluting the stock solutions 1/100 in assay buffer (DMSO final concentration 1%).
For the agonist and antagonist activity study, HEK293 cells stably expressing human GHSR1a receptor were used in a (FLIPR) assay. […] Fluorescence signal was detected with FLIPR at room temperature according to standard settings for 10 minutes before cells were exposed to 10 μl of 5× working concentrations of agonists (compound added by FLIPR). The fluorescence signal was detected in the subsequent 3 minutes (antagonist mode).

The nature of series [2]: Dog pharmacokinetic study, single oral HM04 fumarate salt 3, 10, 30 mg/kg (Example 10). It is filed as in vivo, male Beagle dogs. On the procedure: (§1) The pharmacokinetics of HM04 in plasma after single oral administration of HM04 fumarate salt to 6-week old male Sprague Dawley rats and male Beagle dogs (1-5 years of age) was investigated. Test formulations of 0.6 mg/mL, 2 mg/mL, and 6 mg/mL HM04 fumarate salt (based on weight of the free base) were prepared in 5% glucose solution. Doses of 3, 10, and 30 mg/kg HM04 fumarate salt (based on weight of the free base) were administered by gastric gavage as a 5 mL/kg dose volume of each of the three test formulations. Four animals were in each dose group. The formulation was administered to the dogs in fasting conditions with food provided three hours post-dosing.
Oral absolute bioavailability at 3 mg/kg was calculated from the ratio of individual oral AUC∞ to the individual AUC∞ values determined following intravenous administration of 3 mg/kg HM04 fumarate salt (based on weight of the free base) to the same four male Beagle dogs.
Oral absolute bioavailability at 10 mg/kg was calculated from the ratio of individual oral AUC∞ to the individual AUC∞ values determined following intravenous administration of 10 mg/kg HM04 fumarate salt (based on weight of the free base) to the same four male Beagle dogs.
(§2) Plasma HM04 concentrations were measured by LC-MS/MS following protein precipitation in the 96-well plate format. At the time of analysis samples were thawed out at ambient temperature. Aliquots of 25 μL of rat or dog K3EDTA plasma were spiked with 300 μL of internal standard (25 ng/mL of HM04-d8 in acetonitrile). After gentle vortex mixing for 5 minutes and centrifugation at 2010 g for 15 minutes at 4° C., an aliquot of 100 μL of the organic phase was transferred into a fresh 96-well polypropylene plate, using a P3-Evolution robotic system (Perkin Elmer). Following dilution with 100 μL of […] ammonium formate pH 3.5, an aliquot of 10 μL was injected into the LC-MS/MS system.

Series [3] is described as follows: Rat pharmacokinetic study, single oral HM04 fumarate salt 3, 10, 30 mg/kg (Example 10). In kind it is in vivo, male Sprague Dawley rats. On the procedure: as §1
A comparison of the plasma concentration of HM04 (ng/mL) in rats over time is provided in FIG. 19 and a summary of the pharmacokinetic analysis is provided in Table 5, below. […] The standard deviation associated with the mean oral bioavailability was calculated according to the formula: SDq=[^2√{square root over ((my^2·SDx^2+mx^2−SDy^2))}]/my^2 where q=mean bioavailability; mx=oral dose-normalized mean AUC, and my=IV dose-normalized mean AUC.
as §2

T1 sequence (Q92847 whole entry): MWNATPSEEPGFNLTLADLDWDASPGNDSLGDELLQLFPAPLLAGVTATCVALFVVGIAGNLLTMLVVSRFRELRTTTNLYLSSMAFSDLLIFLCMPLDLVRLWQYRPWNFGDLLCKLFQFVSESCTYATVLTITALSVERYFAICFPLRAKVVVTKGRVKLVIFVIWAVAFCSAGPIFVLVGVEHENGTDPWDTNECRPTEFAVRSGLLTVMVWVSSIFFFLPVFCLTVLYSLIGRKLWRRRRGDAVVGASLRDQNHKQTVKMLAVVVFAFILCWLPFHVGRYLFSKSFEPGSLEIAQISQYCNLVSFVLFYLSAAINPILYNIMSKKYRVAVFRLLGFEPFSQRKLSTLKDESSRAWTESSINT

For the molecule `CN1CCC(N(C)C(=O)N[C@H](c2ccc(-c3cnccn3)c(Cl)c2Cl)C(F)(F)F)CC1` [HM04, (R)-3-(1-(2,3-dichloro-4-(pyrazin-2-yl)phenyl)-2,2,2-trifluoroethyl)-1-methyl-1-(1-methylpiperidin-4-yl)urea], in series [1], the agonist activity entry is “No agonist activity was observed”. In series [2] (3 mg/kg oral, three of the four dogs, range), the “detectable pre-dose concentrations of HM04” value lay within 5.15 to 8.31 ng/mL. Moreover, in series [2] (oral 10 mg/kg, Dog 2), the detectable pre-dose concentration came out at 8.60 ng/mL. Also, the bioavailability in series [3] (male, Sprague Dawley, plasma, oral doses of 3 and 10 mg/kg) fell in the range of 40 to 50%. Also, the “exposure to HM04 versus dose” value in series [3] (oral 3, 10, 30 mg/kg) was “more than a proportional increase at 30 mg/kg”.

Usually bioavailability stands for dose-corrected exposure relative to a reference, in per cent.
